Activity calls are given as the source filed them. The rule behind the calls is not given here.
Legend:
ECa-109 cell line [1] = experiment: Cytotoxicity against human EC109 cells assessed as combination index at 10 uM in presence of 2.5 nM paclitaxel; assay type: functional
ECa-109 cell line [2] = experiment: Cytotoxicity against human EC109 cells assessed as combination index at 10 uM in presence of 10 nM paclitaxel; assay type: functional
Mus musculus [3] = experiment: Toxicity in nude mouse xenografted with human EC109 cells assessed as body weight loss at 10 mg/kg measured after 21 days; assay type: organism-based; conditions: in vivo, 504 h
ECa-109 cell line [4] = experiment: Antitumor activity against human EC109 cells xenografted in nude mouse assessed as increase in apoptotic cells at 10 mg/kg in presence of paclitaxel measured after 21 days by TUNEL assay; assay type: functional, organism-based
ECa-109 cell line [5] = experiment: Induction of apoptosis in human EC109 cells assessed as nuclear shrinkage at 15 uM in presence of 5 nM paclitaxel after 24 hrs by Hochest 33258 staining based fluorescent microscopic analysis; assay type: functional, cell-based
ECa-109 cell line [6] = experiment: Cytotoxicity against human EC109 cells assessed as combination index at 10 uM in presence of 5 nM paclitaxel; assay type: functional
ECa-109 cell line [7] = experiment: Induction of apoptosis in human EC109 cells assessed as necrotic cells at 15 uM after 24 hrs in presence of paclitaxel by Annexin V-FITC/propidium iodide staining based flow cytometry (reference value: 1.6 %); assay type: functional
Mus musculus [8] = experiment: Toxicity in nude mouse xenografted with human EC109 cells assessed as skin ulceration at 10 mg/kg measured after 21 days; assay type: organism-based; conditions: in vivo, 504 h
ECa-109 cell line [9] = experiment: Antitumor activity against human EC109 cells xenografted in nude mouse assessed as decrease in tumor weight at 10 mg/kg in presence of 5 mg/kg paclitaxel measured after 21 days; assay type: functional, organism-based
Mus musculus [10] = experiment: Toxicity in nude mouse xenografted with human EC109 cells assessed as effect on spleen at 10 mg/kg in presence of paclitaxel measured after 21 days by histopathological analysis; assay type: organism-based; conditions: in vivo, 504 h
ECa-109 cell line [11] = experiment: Induction of apoptosis in human EC109 cells assessed as early apoptotic cells at 15 uM after 24 hrs in presence of paclitaxel by Annexin V-FITC/propidium iodide staining based flow cytometry (reference value: 1.3%); assay type: functional
ECa-109 cell line [12] = experiment: Induction of apoptosis in human EC109 cells assessed as late apoptotic cells at 15 uM after 24 hrs by Annexin V-FITC/propidium iodide staining based flow cytometry (reference value: 1%); assay type: functional
Mus musculus [13] = experiment: Toxicity in nude mouse xenografted with human EC109 cells assessed as pathological changes at 10 mg/kg measured after 21 days; assay type: organism-based; conditions: in vivo, 504 h
Mus musculus [14] = experiment: Hepatotoxicity in nude mouse xenografted with human EC109 cells assessed as change in serum total protein level at 10 mg/kg in presence of paclitaxel measured after 21 days; assay type: toxicity, organism-based; conditions: in vivo, 504 h
ECa-109 cell line [15] = experiment: Induction of apoptosis in human EC109 cells assessed as viable cells at 15 uM after 24 hrs in presence of paclitaxel by Annexin V-FITC/propidium iodide staining based flow cytometry (reference value: 96.1%); assay type: functional; conditions: ECa-109, 24 h, read-out: Activity
ECa-109 cell line [16] = experiment: Cytotoxicity against human EC109 cells assessed as combination index at 15 uM in presence of 2.5 nM paclitaxel; assay type: functional
ECa-109 cell line [17] = experiment: Induction of apoptosis in human EC109 cells assessed as decrease in pro-caspase 3 expression at 15 uM in presence of 5 nM paclitaxel by Western blot method; assay type: functional, cell-based
ECa-109 cell line [18] = experiment: Cytotoxicity against human EC109 cells assessed as combination index at 15 uM in presence of 10 nM paclitaxel; assay type: functional
ECa-109 cell line [19] = experiment: Induction of apoptosis in human EC109 cells assessed as decrease in Bcl-XL level at 15 uM in presence of 5 nM paclitaxel by Western blot method; assay type: functional, cell-based
ECa-109 cell line [20] = experiment: Induction of apoptosis in human EC109 cells assessed as nuclear condensation at 15 uM in presence of 5 nM paclitaxel after 24 hrs by Hochest 33258 staining based fluorescent microscopic analysis; assay type: functional, cell-based
Mus musculus [21] = experiment: Hepatotoxicity in nude mouse xenografted with human EC109 cells assessed as change in serum ALT level at 10 mg/kg in presence of paclitaxel measured after 21 days; assay type: toxicity, organism-based; conditions: in vivo, 504 h
ECa-109 cell line [22] = experiment: Induction of apoptosis in human EC109 cells assessed as early apoptotic cells at 15 uM after 24 hrs by Annexin V-FITC/propidium iodide staining based flow cytometry (reference value: 1.3%); assay type: functional
ECa-109 cell line [23] = experiment: Cytotoxicity against human EC109 cells assessed as combination index at 5 uM in presence of 5 nM paclitaxel; assay type: functional
Mus musculus [24] = experiment: Cardiotoxicity in nude mouse xenografted with human EC109 cells at 10 mg/kg in presence of paclitaxel measured after 21 days by histopathological analysis; assay type: toxicity, organism-based; conditions: in vivo, 504 h
ECa-109 cell line [25] = experiment: Cytotoxicity against human EC109 cells assessed as combination index at 5 uM in presence of 10 nM paclitaxel; assay type: functional
Mus musculus [26] = experiment: Toxicity in nude mouse xenografted with human EC109 cells assessed as effect on lungs at 10 mg/kg in presence of paclitaxel measured after 21 days by histopathological analysis; assay type: organism-based; conditions: in vivo, 504 h
ECa-109 cell line [27] = experiment: Cytotoxicity against human EC109 cells assessed as combination index at 15 uM in presence of 5 nM paclitaxel; assay type: functional
ECa-109 cell line [28] = experiment: Antitumor activity against human EC109 cells xenografted in nude mouse assessed as reduction in tumor size at 10 mg/kg in presence of 5 mg/kg paclitaxel measured after 21 days; assay type: functional, organism-based
Mus musculus [29] = experiment: Toxicity in nude mouse xenografted with human EC109 cells assessed as pathological changes at 10 mg/kg in presence of paclitaxel measured after 21 days; assay type: organism-based; conditions: in vivo, 504 h

## C=C1C(=O)[C@@]23[C@@H]4OC(c5ccc(Cl)cc5)O[C@@]25OC[C@@]2([C@H]([C@@H]5O)C(C)(C)CC[C@@H]2O)[C@@H]3CC[C@@H]14 (some centres undefined)
ECa-109 cell line [1]
  CI: 0.56
ECa-109 cell line [2]
  CI: 0.43
Mus musculus [3]
  Activity: Non-Toxic
ECa-109 cell line [4]
  Activity: Active
ECa-109 cell line [5]
  Activity: Active
ECa-109 cell line [6]
  CI: 0.43
ECa-109 cell line [7]
  Activity: 1.5%
Mus musculus [8]
  Activity: Non-Toxic
ECa-109 cell line [9]
  Activity: Active
Mus musculus [10]
  Activity: Non-Toxic
ECa-109 cell line [11]
  Activity: 36.1%
ECa-109 cell line [12]
  Activity: 5.3%
Mus musculus [13]
  Activity: Non-Toxic
Mus musculus [14]
  Activity: Non-Toxic
ECa-109 cell line [15]
  viability at 15 µM: 52.7%
ECa-109 cell line [16]
  CI: 0.6
ECa-109 cell line [17]
  Activity: Active
ECa-109 cell line [18]
  CI: 0.68
ECa-109 cell line [19]
  Activity: Active
ECa-109 cell line [20]
  Activity: Active
Mus musculus [21]
  Activity: Non-Toxic
ECa-109 cell line [22]
  Activity: 20.2%
ECa-109 cell line [23]
  CI: 0.75
Mus musculus [24]
  Activity: Non-Toxic
ECa-109 cell line [25]
  CI: 0.48
Mus musculus [26]
  Activity: Non-Toxic
ECa-109 cell line [27]
  CI: 0.37
ECa-109 cell line [28]
  Activity: Active
Mus musculus [29]
  Activity: Non-Toxic

Source: ChEMBL document CHEMBL4014287, “Jesridonin in combination with paclitaxel demonstrates synergistic anti-tumor activity in human esophageal carcinoma cells” (Bioorg Med Chem Lett, 2017)
